From ChEMBL document CHEMBL1201862, “PubChem BioAssay data set” (2004)
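Cultured in 96-well plates, cells were exposed to test compound for 48 hours across five concentrations. Here, GI50 denotes the concentration required for 50% inhibition of growth.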 Calls of active or inactive are those of the source. Rule as the data show it: active = GI50 up to about 1.1 µM and inactive = higher.

Assays:
Test in all cases: NCI-60 cell line screen, 48 h
KM12 = tested on: KM12
OVCAR-8 = tested on: OVCAR-8
EKVX = tested on: EKVX
OVCAR-4 = tested on: OVCAR-4
UO-31 = tested on: UO-31
NCI/ADR-RES = tested on: NCI/ADR-RES
BT-549 = tested on: BT-549
MDA-MB-231 = tested on: MDA-MB-231
K562 = tested on: K562
SK-MEL-28 = tested on: SK-MEL-28
HOP-92 = tested on: HOP-92
NCI-H522 = tested on: NCI-H522
SK-OV-3 = tested on: SK-OV-3
SK-MEL-2 = tested on: SK-MEL-2
786-0 = tested on: 786-0
OVCAR-3 = tested on: OVCAR-3
CAKI-1 = tested on: CAKI-1
SN12C = tested on: SN12C
SR = tested on: SR
NCI-H460 = tested on: NCI-H460
NCI-H23 = tested on: NCI-H23
SF-295 = tested on: SF-295
RXF 393 = tested on: RXF 393
SW-620 = tested on: SW-620
NCI-H226 = tested on: NCI-H226
MDA-MB-435 = tested on: MDA-MB-435
U-251 = tested on: U-251
MOLT-4 = tested on: MOLT-4
SK-MEL-5 = tested on: SK-MEL-5
A549 = tested on: A549
Malme-3M = tested on: Malme-3M
M14 = tested on: M14
Hs-578T = tested on: Hs-578T
SNB-19 = tested on: SNB-19
MDA-N = tested on: MDA-N
A498 = tested on: A498
OVCAR-5 = tested on: OVCAR-5
RPMI-8226 = tested on: RPMI-8226
T47D = tested on: T47D
TK-10 = tested on: TK-10
SF-268 = tested on: SF-268
HCT-15 = tested on: HCT-15
HCC 2998 = tested on: HCC 2998
DU-145 = tested on: DU-145
MCF7 = tested on: MCF7
UACC-257 = tested on: UACC-257
ACHN = tested on: ACHN
HCT-116 = tested on: HCT-116
UACC-62 = tested on: UACC-62
LOX IMVI = tested on: LOX IMVI
COLO 205 = tested on: COLO 205
HOP-62 = tested on: HOP-62
SNB-75 = tested on: SNB-75
PC-3 = tested on: PC-3
HT-29 = tested on: HT-29
CCRF-CEM = tested on: CCRF-CEM
IGROV-1 = tested on: IGROV-1

Measured: GI50

Cc1ccc(S(=O)(=O)Nc2nnc(S(N)(=O)=O)s2)cc1
inactive: KM12 > 100 µM | OVCAR-8 > 100 µM | EKVX > 100 µM | OVCAR-4 > 100 µM | UO-31 > 100 µM | NCI/ADR-RES > 100 µM | BT-549 > 100 µM | MDA-MB-231 > 100 µM | K562 > 100 µM | SK-MEL-28 > 100 µM | HOP-92 > 100 µM | NCI-H522 > 100 µM | SK-OV-3 > 100 µM | SK-MEL-2 > 100 µM | 786-0 > 100 µM | OVCAR-3 > 100 µM | CAKI-1 > 100 µM | SN12C > 100 µM | SR > 100 µM | NCI-H460 > 100 µM | NCI-H23 > 100 µM | SF-295 > 100 µM | RXF 393 > 100 µM | SW-620 > 100 µM | NCI-H226 > 100 µM | MDA-MB-435 > 100 µM | U-251 > 100 µM | MOLT-4 > 100 µM | SK-MEL-5 > 100 µM | A549 > 100 µM | Malme-3M > 100 µM | M14 > 100 µM | Hs-578T > 100 µM | SNB-19 > 100 µM | MDA-N > 100 µM | A498 > 100 µM | OVCAR-5 > 100 µM | RPMI-8226 > 100 µM | T47D > 100 µM | TK-10 > 100 µM | SF-268 > 100 µM | HCC 2998 > 100 µM | DU-145 > 100 µM | MCF7 > 100 µM | UACC-257 > 100 µM | ACHN > 100 µM | HCT-116 > 100 µM | UACC-62 > 100 µM | LOX IMVI > 100 µM | COLO 205 > 100 µM | HOP-62 > 100 µM
> 100 µM: HCT-15

Cn1c(=O)c2nc(CCCCC(=O)O)[nH]c2n(C)c1=O
> 100 µM: HCT-15
inactive: KM12 > 100 µM | OVCAR-8 > 100 µM | EKVX > 100 µM | OVCAR-4 > 100 µM | UO-31 > 100 µM | SNB-75 > 100 µM | NCI/ADR-RES > 100 µM | BT-549 > 100 µM | MDA-MB-231 > 100 µM | SK-MEL-28 > 100 µM | HOP-92 > 100 µM | NCI-H522 > 100 µM | SK-MEL-2 > 100 µM | 786-0 > 100 µM | OVCAR-3 > 100 µM | PC-3 > 100 µM | HT-29 > 100 µM | CAKI-1 > 100 µM | SN12C > 100 µM | CCRF-CEM > 100 µM | NCI-H460 > 100 µM | NCI-H23 > 100 µM | SF-295 > 100 µM | RXF 393 > 100 µM | SW-620 > 100 µM | NCI-H226 > 100 µM | MDA-MB-435 > 100 µM | U-251 > 100 µM | MOLT-4 > 100 µM | SK-MEL-5 > 100 µM | A549 > 100 µM | Malme-3M > 100 µM | M14 > 100 µM | Hs-578T 68.5 µM | SNB-19 > 100 µM | MDA-N > 100 µM | A498 > 100 µM | OVCAR-5 > 100 µM | T47D > 100 µM | TK-10 > 100 µM | SF-268 > 100 µM | HCC 2998 > 100 µM | DU-145 > 100 µM | UACC-257 > 100 µM | ACHN > 100 µM | HCT-116 > 100 µM | UACC-62 > 100 µM | LOX IMVI > 100 µM | IGROV-1 61.7 µM | HOP-62 > 100 µM

CNc1nc(N(C)C)nc(N(C)C)n1
inactive: NCI/ADR-RES 1140 µM | BT-549 1320 µM | MDA-MB-231 955 µM | PC-3 1580 µM | NCI-H226 1120 µM | MDA-MB-435 1110 µM | M14 1210 µM | Hs-578T 2100 µM | MDA-N 855 µM | T47D 578 µM | DU-145 2790 µM | MCF7 771 µM
